From the supplement of paper PMC10307832

Assays:
Assay in all cases: relative viability (nuclei count vs DMSO), 5 days (fraction); higher = more cells survive
Selumetinib + Decitabine = compound: Cn1cnc2c(F)c(Nc3ccc(Br)cc3Cl)c(C(=O)NOCCO)cc21 [Selumetinib] + Nc1ncn([C@H]2C[C@H](O)[C@@H](CO)O2)c(=O)n1 [Decitabine] (partner 2 µM)
In short: (§1)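 One day after seeding in 1536-well plates, lung cancer cell lines were dosed by pin tool. Dosing was either single-drug or a fixed anchor-drug dose plus five library-drug doses (not always all listed) in √10 steps. After 5 days, nuclei were stained in one fix-and-stain step and counted on 4× images, and relative viability is the nuclei count of treated wells over that of vehicle wells, given as the median of duplicate plates.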

Selumetinib + OSI-027 = compound: Cn1cnc2c(F)c(Nc3ccc(Br)cc3Cl)c(C(=O)NOCCO)cc21 [Selumetinib] + COc1cccc2cc(-c3nc([C@H]4CC[C@H](C(=O)O)CC4)n4ncnc(N)c34)[nH]c12 [OSI-027] (partner 0.5 µM)
In short: as §1

Selumetinib + Olaparib = compound: Cn1cnc2c(F)c(Nc3ccc(Br)cc3Cl)c(C(=O)NOCCO)cc21 [Selumetinib] + O=C(c1cc(Cc2n[nH]c(=O)c3ccccc23)ccc1F)N1CCN(C(=O)C2CC2)CC1 [Olaparib] (partner 8 µM)
In short: as §1

Venetoclax + Pemetrexed = compound: CC1(C)CCC(CN2CCN(c3ccc(C(=O)NS(=O)(=O)c4ccc(NCC5CCOCC5)c([N+](=O)[O-])c4)c(Oc4cnc5[nH]ccc5c4)c3)CC2)=C(c2ccc(Cl)cc2)C1 [Venetoclax] + Nc1nc2[nH]cc(CCc3ccc(C(=O)N[C@@H](CCC(=O)O)C(=O)O)cc3)c2c(=O)[nH]1 [Pemetrexed] (partner 0.2 µM)
In short: as §1

Cell Line | relative viability (Selumetinib + Decitabine; first compound 0.02 µM) | relative viability (Selumetinib + Decitabine; first compound 0.06325 µM) | relative viability (Selumetinib + Decitabine; first compound 0.2 µM) | relative viability (Selumetinib + Decitabine; first compound 0.6325 µM) | relative viability (Selumetinib + OSI-027; first compound 0.02 µM) | relative viability (Selumetinib + OSI-027; first compound 0.06325 µM) | relative viability (Selumetinib + OSI-027; first compound 0.2 µM) | relative viability (Selumetinib + OSI-027; first compound 0.6325 µM) | relative viability (Selumetinib + Olaparib; first compound 0.02 µM) | relative viability (Selumetinib + Olaparib; first compound 0.06325 µM) | relative viability (Selumetinib + Olaparib; first compound 0.2 µM) | relative viability (Selumetinib + Olaparib; first compound 0.6325 µM) | relative viability (Venetoclax + Pemetrexed; first compound 0.01 µM) | relative viability (Venetoclax + Pemetrexed; first compound 0.03162 µM) | relative viability (Venetoclax + Pemetrexed; first compound 0.1 µM) | relative viability (Venetoclax + Pemetrexed; first compound 0.3162 µM) | relative viability (Venetoclax + Pemetrexed; first compound 1 µM)
COR-L23 | 0.438 | 0.418 | 0.451 | 0.444 | 0.798 | 0.782 | 0.753 | 0.565 | 0.404 | 0.385 | 0.414 | 0.446 | 0.181 | 0.177 | 0.189 | 0.199 | 0.197
ABC-1 | 1.01 | 1.08 | 1.08 | 1.02 | 0.373 | 0.403 | 0.367 | 0.345 | 0.885 | 0.726 | 0.737 | 0.768 |  |  |  |  | 
SW 900 | 0.43 | 0.409 | 0.441 | 0.504 | 0.594 | 0.554 | 0.477 | 0.588 | 0.96 | 0.798 | 0.788 | 0.843 | 0.478 | 0.51 | 0.465 | 0.499 | 0.489
PC-3 [JPC-3] | 0.786 | 0.745 | 0.796 | 0.798 | 0.712 | 0.752 | 0.749 | 0.787 | 1.03 | 1.07 | 0.992 | 0.854 | 1.05 | 1.45 | 1.18 | 1.26 | 1.01
NCI-H1648 |  | 0.447 | 0.477 | 0.673 | 0.29 | 0.266 | 0.293 | 0.289 |  | 0.914 | 0.742 | 0.493 |  | 0.774 | 0.64 | 0.626 | 0.718
A549 | 0.305 | 0.227 | 0.198 | 0.267 |  |  |  |  | 0.284 | 0.295 | 0.325 | 0.265 |  |  |  |  | 
A-427 | 0.537 | 0.575 | 0.53 | 0.55 | 0.482 | 0.327 | 0.321 | 0.288 | 0.724 | 0.771 | 0.802 | 0.845 | 0.988 | 0.967 | 1.03 | 1.04 | 0.978
NCI-H1975 | 0.615 | 0.384 | 0.385 | 0.334 | 0.8 | 0.57 | 0.676 | 0.527 | 0.799 | 0.88 | 0.658 | 0.582 | 0.261 | 0.279 | 0.276 | 0.309 | 0.281
LU99A | 0.982 | 0.905 | 0.91 | 0.759 | 0.338 | 0.308 | 0.331 | 0.301 | 0.253 | 0.265 | 0.287 | 0.267 | 0.177 | 0.239 | 0.163 | 0.172 | 0.178
NCI-H1755 | 0.716 | 0.729 | 0.662 | 0.73 | 0.745 | 0.698 | 0.681 | 0.673 | 0.848 | 0.787 | 0.807 | 0.847 | 0.39 | 0.475 | 0.397 | 0.441 | 0.407
LOU-NH91 | 0.782 | 0.777 | 0.723 | 0.751 | 0.701 | 0.68 | 0.646 | 0.615 | 0.914 | 0.845 | 0.864 | 0.806 | 0.362 | 0.365 | 0.392 | 0.327 | 0.337
SK-LU-1 | 0.793 | 0.65 | 0.572 | 0.438 | 0.339 | 0.331 | 0.357 | 0.208 | 0.467 | 0.459 | 0.401 | 0.335 | 0.97 | 1.05 | 1.03 | 0.966 | 0.867
BEN | 0.704 | 0.733 | 0.714 | 0.731 | 0.276 | 0.315 | 0.274 | 0.295 | 1.13 | 1.08 | 1.14 | 0.988 | 0.811 | 0.826 | 0.712 | 0.855 | 0.769
NCI-H1734 | 0.53 | 0.479 | 0.502 | 0.528 | 0.557 | 0.635 | 0.539 | 0.537 | 0.604 | 0.391 | 0.557 | 0.56 | 0.417 | 0.459 | 0.399 | 0.422 | 0.393
Calu-6 |  |  |  |  |  |  |  |  | 0.62 | 0.489 | 0.421 | 0.362 |  |  |  |  | 
EBC-1 |  |  |  |  |  |  |  |  | 0.717 | 0.66 | 0.599 | 0.443 |  |  |  |  | 
NCI-H727 | 0.762 | 0.578 | 0.606 | 0.583 | 0.603 | 0.395 | 0.332 | 0.427 | 0.665 | 0.558 | 0.383 | 0.431 |  |  |  |  | 
IA-LM |  |  |  |  |  |  |  |  | 1.09 | 0.531 | 0.587 | 0.482 |  |  |  |  | 
CAL-12T |  |  |  |  | 0.636 | 0.492 | 0.516 | 0.395 | 0.678 | 0.651 | 0.595 | 0.564 | 0.965 | 1.23 | 1.14 | 1.22 | 1.19
